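Each compound was tested at five concentrations against cells in 96-well plates for 48 hours. At the GI50, growth is halved.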 Active and inactive are the calls of the source. No stated cut-off is given here; in the data, active = GI50 up to about 1.1 µM and inactive = higher.
Tests used:
Experiment in all cases: NCI-60 cell line screen, 48 h
HOP-62 = system: HOP-62
SW-620 = system: SW-620
SN12C = system: SN12C
786-0 = system: 786-0
SF-268 = system: SF-268
TK-10 = system: TK-10
EKVX = system: EKVX
MCF7 = system: MCF7
NCI-H226 = system: NCI-H226
SR = system: SR
KM12 = system: KM12
SNB-75 = system: SNB-75
Malme-3M = system: Malme-3M
HCT-15 = system: HCT-15
NCI-H522 = system: NCI-H522
SK-MEL-2 = system: SK-MEL-2
HL-60 = system: HL-60
ACHN = system: ACHN
OVCAR-8 = system: OVCAR-8
U-251 = system: U-251
RPMI-8226 = system: RPMI-8226
PC-3 = system: PC-3
SF-295 = system: SF-295
SK-MEL-28 = system: SK-MEL-28
CCRF-CEM = system: CCRF-CEM
A549 = system: A549
UACC-257 = system: UACC-257
NCI-H23 = system: NCI-H23
MOLT-4 = system: MOLT-4
OVCAR-5 = system: OVCAR-5
A498 = system: A498
HT-29 = system: HT-29
OVCAR-3 = system: OVCAR-3
SK-MEL-5 = system: SK-MEL-5
HCC 2998 = system: HCC 2998
SF-539 = system: SF-539
Hs-578T = system: Hs-578T
K562 = system: K562
NCI-H460 = system: NCI-H460
HCT-116 = system: HCT-116
NCI/ADR-RES = system: NCI/ADR-RES
SNB-19 = system: SNB-19
OVCAR-4 = system: OVCAR-4
HOP-92 = system: HOP-92
UO-31 = system: UO-31
COLO 205 = system: COLO 205
CAKI-1 = system: CAKI-1
LOX IMVI = system: LOX IMVI
M14 = system: M14
MDA-MB-231 = system: MDA-MB-231
DU-145 = system: DU-145
MDA-MB-435 = system: MDA-MB-435
MDA-N = system: MDA-N
IGROV-1 = system: IGROV-1
UACC-62 = system: UACC-62
RXF 393 = system: RXF 393
T47D = system: T47D
SK-OV-3 = system: SK-OV-3

## O=C(CCCn1cnc([N+](=O)[O-])n1)NCCCn1ccnc1[N+](=O)[O-]
HOP-62
  GI50: > 100 µM (inactive)
SW-620
  GI50: 68.2 µM (inactive)
SN12C
  GI50: > 100 µM (inactive)
786-0
  GI50: > 100 µM (inactive)
SF-268
  GI50: > 100 µM (inactive)
TK-10
  GI50: 99.8 µM (inactive)
EKVX
  GI50: > 100 µM (inactive)
MCF7
  GI50: > 100 µM (inactive)
NCI-H226
  GI50: > 100 µM (inactive)
SR
  GI50: > 100 µM (inactive)
KM12
  GI50: > 100 µM (inactive)
SNB-75
  GI50: > 100 µM (inactive)
Malme-3M
  GI50: 83.2 µM (inactive)
HCT-15
  GI50: > 100 µM
NCI-H522
  GI50: > 100 µM (inactive)
SK-MEL-2
  GI50: 32.4 µM (inactive)
HL-60
  GI50: 78.9 µM (inactive)
ACHN
  GI50: > 100 µM (inactive)
OVCAR-8
  GI50: > 100 µM (inactive)
U-251
  GI50: > 100 µM (inactive)
RPMI-8226
  GI50: > 100 µM (inactive)
PC-3
  GI50: > 100 µM (inactive)
SF-295
  GI50: > 100 µM (inactive)
SK-MEL-28
  GI50: > 100 µM (inactive)
CCRF-CEM
  GI50: > 100 µM (inactive)
A549
  GI50: > 100 µM (inactive)
UACC-257
  GI50: > 100 µM (inactive)
NCI-H23
  GI50: > 100 µM (inactive)
MOLT-4
  GI50: > 100 µM (inactive)
OVCAR-5
  GI50: > 100 µM (inactive)
A498
  GI50: 9.35 µM (inactive)
HT-29
  GI50: > 100 µM (inactive)
OVCAR-3
  GI50: > 100 µM (inactive)
SK-MEL-5
  GI50: 61.8 µM (inactive)
HCC 2998
  GI50: > 100 µM (inactive)
SF-539
  GI50: > 100 µM (inactive)
Hs-578T
  GI50: > 100 µM (inactive)
K562
  GI50: > 100 µM (inactive)
NCI-H460
  GI50: > 100 µM (inactive)
HCT-116
  GI50: > 100 µM (inactive)

## CC[C@H](CC[C@@H](C)[C@H]1CC[C@H]2[C@@H]3CC=C4C[C@@H](O)CC[C@]4(C)[C@H]3CC[C@]12C)C(C)C [BETA-SITOSTEROL]
HOP-62
  GI50: > 100 µM (inactive)
SW-620
  GI50: > 100 µM (inactive)
SN12C
  GI50: > 100 µM (inactive)
786-0
  GI50: > 100 µM (inactive)
NCI/ADR-RES
  GI50: > 100 µM (inactive)
SF-268
  GI50: > 100 µM (inactive)
TK-10
  GI50: > 100 µM (inactive)
EKVX
  GI50: > 100 µM (inactive)
MCF7
  GI50: > 100 µM (inactive)
NCI-H226
  GI50: > 100 µM (inactive)
SNB-19
  GI50: > 100 µM (inactive)
OVCAR-4
  GI50: > 100 µM (inactive)
HOP-92
  GI50: > 100 µM (inactive)
UO-31
  GI50: > 100 µM (inactive)
KM12
  GI50: > 100 µM (inactive)
COLO 205
  GI50: > 100 µM (inactive)
SNB-75
  GI50: > 100 µM (inactive)
Malme-3M
  GI50: > 100 µM (inactive)
HCT-15
  GI50: > 100 µM
NCI-H522
  GI50: > 100 µM (inactive)
SK-MEL-2
  GI50: > 100 µM (inactive)
HL-60
  GI50: > 10 µM (inactive)
ACHN
  GI50: > 100 µM (inactive)
OVCAR-8
  GI50: > 100 µM (inactive)
U-251
  GI50: > 100 µM (inactive)
CAKI-1
  GI50: > 100 µM (inactive)
RPMI-8226
  GI50: > 100 µM (inactive)
PC-3
  GI50: > 100 µM (inactive)
SF-295
  GI50: > 100 µM (inactive)
SK-MEL-28
  GI50: > 100 µM (inactive)
CCRF-CEM
  GI50: > 100 µM (inactive)
A549
  GI50: > 100 µM (inactive)
UACC-257
  GI50: > 100 µM (inactive)
NCI-H23
  GI50: > 100 µM (inactive)
LOX IMVI
  GI50: > 100 µM (inactive)
MOLT-4
  GI50: > 100 µM (inactive)
OVCAR-5
  GI50: > 100 µM (inactive)
HT-29
  GI50: > 100 µM (inactive)
OVCAR-3
  GI50: > 100 µM (inactive)
SK-MEL-5
  GI50: > 100 µM (inactive)
HCC 2998
  GI50: > 100 µM (inactive)
M14
  GI50: > 100 µM (inactive)
SF-539
  GI50: > 100 µM (inactive)
MDA-MB-231
  GI50: > 100 µM (inactive)
Hs-578T
  GI50: > 100 µM (inactive)
K562
  GI50: > 100 µM (inactive)
DU-145
  GI50: > 100 µM (inactive)
MDA-MB-435
  GI50: > 100 µM (inactive)
NCI-H460
  GI50: > 100 µM (inactive)
MDA-N
  GI50: > 100 µM (inactive)
HCT-116
  GI50: > 100 µM (inactive)
IGROV-1
  GI50: > 100 µM (inactive)

## CC1OC(c2ccc3c(OCc4ccccc4)cccc3c2O)CC(OCc2ccccc2)[C@H]1OCc1ccccc1 (stereo not given in full)
HOP-62
  GI50: > 10 µM (inactive)
SW-620
  GI50: > 10 µM (inactive)
SN12C
  GI50: > 10 µM (inactive)
786-0
  GI50: > 10 µM (inactive)
UACC-62
  GI50: > 10 µM (inactive)
SF-268
  GI50: > 10 µM (inactive)
TK-10
  GI50: > 10 µM (inactive)
EKVX
  GI50: > 10 µM (inactive)
RXF 393
  GI50: > 10 µM (inactive)
MCF7
  GI50: > 10 µM (inactive)
T47D
  GI50: > 10 µM (inactive)
KM12
  GI50: > 10 µM (inactive)
COLO 205
  GI50: > 10 µM (inactive)
SNB-75
  GI50: > 10 µM (inactive)
Malme-3M
  GI50: > 10 µM (inactive)
HCT-15
  GI50: > 10 µM
SK-OV-3
  GI50: > 10 µM (inactive)
HL-60
  GI50: > 10 µM (inactive)
OVCAR-8
  GI50: > 10 µM (inactive)
CAKI-1
  GI50: > 10 µM (inactive)
RPMI-8226
  GI50: > 10 µM (inactive)
PC-3
  GI50: > 10 µM (inactive)
SF-295
  GI50: > 10 µM (inactive)
SK-MEL-28
  GI50: > 10 µM (inactive)
CCRF-CEM
  GI50: > 10 µM (inactive)
A549
  GI50: > 10 µM (inactive)
UACC-257
  GI50: > 10 µM (inactive)
NCI-H23
  GI50: > 10 µM (inactive)
MOLT-4
  GI50: > 10 µM (inactive)
HT-29
  GI50: > 10 µM (inactive)
SK-MEL-5
  GI50: > 10 µM (inactive)
HCC 2998
  GI50: > 10 µM (inactive)
M14
  GI50: > 10 µM (inactive)
MDA-MB-231
  GI50: > 10 µM (inactive)
K562
  GI50: > 10 µM (inactive)
DU-145
  GI50: > 10 µM (inactive)
MDA-N
  GI50: > 10 µM (inactive)
IGROV-1
  GI50: > 10 µM (inactive)

Reference: ChEMBL document CHEMBL1201862, “PubChem BioAssay data set” (2004)
